How the values were obtained:
[1] = system: BRAF-MEK-ERK cascade (activated BRAF (V599E), unactive MEK1, unactive MAP Kinase 2/ERK2); assay: BRAF-MEK-ERK enzymatic cascade assay (TR-FRET); format: biochemical, human; conditions: compounds screened at 10 μM, 45 minutes pre-incubation with enzymes, 100 μM ATP
From the text: A BRAF-MEK-ERK cascade assay is used to evaluate the effects of the compounds as inhibitors of the MAP kinase pathway. An enzymatic cascade assay is set up using recombinant human activated BRAF (V599E) kinase (Cat No. 14-557), human full length unactive MEK1 kinase (Cat No. 14-706) and human full length unactive MAP Kinase 2/ERK2 (Cat No. 14-536) enzymes procured from Upstate. TR-FRET (Time resolved fluorescence resonance energy transfer) detection technology is used for the read out. The assay buffer solution contains 50 mM Tris pH 7.5, 10 mM MgCl2, 1 mM DTT, 0.01% Tween 20, 0.1 nM activated BRAF, 2 nM unactive MEK1, 10 nM unactive ERK2, 100 μM ATP and 500 nM long chain biotin-peptide substrate (LCB-FFKNIVTPRTPPP) in a 384 well format. The kinase reaction is stopped after 90 minutes with 10 mM EDTA and Lance detection mix (2 nM Eu-labeled phospho-serine/threonine antibody (Cat. No. AD0176-Perkin Elmer), 20 nM SA-APC (Cat No. CR130-100-Perkin Elmer) is added. The TR-FRET signal (Excitation at 340 nm, Emission at 615 nm and 665 nm) is read with 50 μs delay time on a Victor3 V fluorimeter. The data is calculated using the ratio of readings at 665 nm to 615 nm. The final concentration of DMSO is 2.5% in the assay. Compounds are screened at 10 μM concentration with pre-incubation of the enzymes in the presence of test compound for 45 minutes.
Each individual IC50 is determined using a 10 point dose response curve generated by GraphPad Prism software Version 4 (San Diego, Calif., USA) using non linear regression curve fit for sigmoidal dose response (variable slope).
These assays described above are fully detailed in Han, Shulin, et. al., Bioorganic & Medicinal Chemistry Letters (2005) 15, 5467-5473, and in Yeh, et. al., Clin Cancer Res (2007) 13 (5), 1576-1583.
(§1) The compounds of the above Examples were evaluated as inhibitors of the MAP kinase pathway in a BRAF-MEK-ERK enzymatic cascade assay and in the cell viability assay described above.

A375 cells = assay: cell viability assay in A375 cells using XTT; format: cell-based; conditions: Homo sapiens, A-375, 72 h, XTT read three days after compound addition
Procedure: The cell viability assay in A375 cells is set up in a 96-well plate format using XTT.
XTT is a yellow tetrazolium salt that is cleaved to an orange formazan dye by the mitochondria of metabolically active cells. The procedure allows for rapid determination in a microtitre plate, to give reproducible and sensitive results.
A375 cells are grown in DMEM media containing 10% FBS and 1 mM sodium pyruvate. Cells are trypsinized and seeded at 1000 cells/well. After allowing the cells to adhere overnight, compound is added to the wells at the following final concentrations: 10, 3, 1, 0.3, 0.1, 0.03, 0.01, 0.001, and 0.0001 μM. The assay is set up in triplicates for each concentration. DMSO concentrations are kept at 0.5%/well. Three days after compound addition, the XTT assay is performed. Wells are washed once with PBS. 100 μL of DMEM media without phenol red or FBS is added to each well. A working solution of XTT containing 1 mg/ml XTT and 100 μL of PMS (stock concentration 0.383 mg/ml) per 5 ml is prepared. 50 μL of the working solution of XTT is added to each well. Absorbance of the plate is read at 465 nm using a Spectramax 190 (Molecular Devices). The absorbance from wells with media and XTT alone, but without cells is considered the blank and subtracted from readings from all wells.
Percentage viability is calculated considering the blank subtracted value from wells treated with DMSO alone as 100% viable. GI50 values are calculated using Graphpad Prism, using non-linear regression curve fit for sigmoidal dose response (variable slope).
The cell viability assay is further described in Scudiero, et. al., Cancer Research (1988) 48, 4827-4833; Weislow, et. al., J. Natl. Cancer Institute, (1989) 81, 577-586; and Roehm, et. al., J. Immunol. Methods [1991]142:257-265.
as §1

| SMILES | % inhibition [1] [%] | GI50 (A375 cells) [µM] |
| --- | --- | --- |
| Cc1c(Nc2ccc(I)cc2F)c(NS(=O)(=O)C2(CO)CC2)c2n(c1=O)CCO2 [Example 11A, 1-Hydroxymethyl-cyclopropanesulfonic acid [7-(2-fluoro-4-iodo-phenylamino)-6-methyl-5-oxo-2,3-dihydro-5H-oxazolo[3,2-a]pyridin-8-yl]-amide] | 100 | 0.02 |
| Cc1c(Nc2ccc(Br)cc2F)c(NS(=O)(=O)C2(CC(O)CO)CC2)c2n(c1=O)CCN2 (centres unmarked) [Example 4A, 1-(2,3-Dihydroxy-propyl)-cyclopropanesulfonic acid [7-(4-bromo-2-fluoro-phenylamino)-6-methyl-5-oxo-1,2,3,5-tetrahydro-imidazo[1,2-a]pyridin-8-yl]-amide] | 100 | 2.88 |
| Cc1c(Nc2ccc(Br)cc2F)c(NS(=O)(=O)C2CC2)c2n(c1=O)CCN2 [Example 2A, Cyclopropanesulfonic acid [7-(4-bromo-2-fluoro-phenylamino)-6-methyl-5-oxo-1,2,3,5-tetrahydro-imidazo[1,2-a]pyridin-8-yl]-amide] | 100 | 0.8 |
| Cc1c(Nc2ccc(I)cc2F)c(NS(=O)(=O)C2(CC(O)CO)CC2)c2n(c1=O)CCO2 (centres unmarked) [Example 10A, 1-(2,3-Dihydroxy-propyl)-cyclopropanesulfonic acid [7-(2-fluoro-4-iodo-phenylamino)-6-methyl-5-oxo-2,3-dihydro-5H-oxazolo[3,2-a]pyridin-8-yl]-amide] | 100 | 0.033 |
| Cc1c(Nc2ccc(I)cc2F)c(NS(=O)(=O)CC2(C)COC2)c2n(c1=O)CCO2 [Example 16A, N-(7-(2-fluoro-4-iodophenylamino)-6-methyl-5-oxo-3,5-dihydro-2H-oxazolo[3,2-a]pyridin-8-yl)-1-(3-methyloxetan-3-yl)methanesulfonamide] | 100 | 1.3 |
| Cc1c(Nc2ccc(I)cc2F)c(NS(=O)(=O)C2CC2CO)c2n(c1=O)CCO2 (centres unmarked) [Example 8A, 2-Hydroxymethyl-cyclopropanesulfonic acid [7-(2-fluoro-4-iodo-phenylamino)-6-methyl-5-oxo-2,3-dihydro-5H-oxazolo[3,2-a]pyridin-8-yl]-amide] | 100 | 0.122 |
| Cc1c(Nc2ccc(I)cc2F)c(NS(=O)(=O)C2(CCCO)CC2)c2n(c1=O)CCO2 [Example 12A, 1-(3-Hydroxy-propyl)-cyclopropanesulfonic acid [7-(2-fluoro-4-iodo-phenylamino)-6-methyl-5-oxo-2,3-dihydro-5H-oxazolo[3,2-a]pyridin-8-yl]-amide] | 100 | 0.011 |
| Cc1c(Nc2ccc(Br)cc2F)c(NS(=O)(=O)C2CC2)c2n(c1=O)CCN2Cc1ccccc1 [Example 1A, Cyclopropanesulfonic acid [1-benzyl-7-(4-bromo-2-fluoro-phenylamino)-6-methyl-5-oxo-1,2,3,5-tetrahydro-imidazo[1,2-a]pyridin-8-yl]-amide] | 70 |  |
| Cc1c(Nc2ccc(I)cc2F)c(NS(=O)(=O)C2CC(O)C2)c2n(c1=O)CCO2 (centres unmarked) [Example 13A, 3-Hydroxy-cyclobutanesulfonic acid [7-(2-fluoro-4-iodo-phenylamino)-6-methyl-5-oxo-2,3-dihydro-5H-oxazolo[3,2-a]pyridin-8-yl]-amide] | 100 | 0.122 |
| Cc1c(Nc2ccc(I)cc2F)c(NS(=O)(=O)C2CCC2)c2n(c1=O)CCO2 [Example 14A, Cyclobutanesulfonic acid [7-(2-fluoro-4-iodo-phenylamino)-6-methyl-5-oxo-2,3-dihydro-5H-oxazolo[3,2-a]pyridin-8-yl]-amide] | 100 | 0.016 |
| Cc1c(Nc2ccc(I)cc2F)c(NS(=O)(=O)C2CC(C(CO)CO)C2)c2n(c1=O)CCO2 (centres unmarked) [Example 15A, 3-(1,3-dihydroxypropan-2-yl)-N-(7-(2-fluoro-4-iodophenylamino)-6-methyl-5-oxo-3,5-dihydro-2H-oxazolo[3,2-a]pyridin-8-yl)cyclobutane-1-sulfonamide] | 100 | 1.53 |
| Cc1c(Nc2ccc(I)cc2F)c(NS(=O)(=O)CCC(CO)CO)c2n(c1=O)CCO2 [Example 18A, N-(7-(2-fluoro-4-iodophenylamino)-6-methyl-5-oxo-3,5-dihydro-2H-oxazolo[3,2-a]pyridin-8-yl)-4-hydroxy-3-(hydroxymethyl)butane-1-sulfonamide] | 100 | 4.26 |
| Cc1c(Nc2ccc(I)cc2F)c(NS(=O)(=O)CCC2COC2)c2n(c1=O)CCO2 [Example 17A, N-(7-(2-fluoro-4-iodophenylamino)-6-methyl-5-oxo-3,5-dihydro-2H-oxazolo[3,2-a]pyridin-8-yl)-2-(oxetan-3-yl)ethanesulfonamide] |  | 1.73 |

More lines, now with the values ahead:

| % inhibition [1] [%] | GI50 (A375 cells) [µM] | SMILES |
| --- | --- | --- |
| 100 | 0.054 | Cc1c(Nc2ccc(I)cc2F)c(NS(=O)(=O)C2(CC(O)CO)CC2)c2n(c1=O)CCS2 (centres unmarked) [Example 20A, 1-(2,3-Dihydroxy-propyl)-cyclopropanesulfonic acid [7-(2-fluoro-4-iodo-phenylamino)-6-methyl-5-oxo-2,3-dihydro-5H-thiazolo[3,2-a]pyridin-8-yl]-amide] |
| 100 | 0.107 | Cc1c(Nc2ccc(I)cc2F)c(NS(=O)(=O)N(C)C)c2n(c1=O)CCS2 [Example 23A, N-[7-(2-Fluoro-4-iodo-phenylamino)-6-methyl-5-oxo-2,3-dihydro-5H-thiazolo[3,2-a]pyridin-8-yl]-dimethylaminosulfonamide] |
| 100 | 0.192 | Cc1c(Nc2ccc(I)cc2F)c(NS(=O)(=O)C2CCCC2)c2n(c1=O)CCS2 [Example 24A, Cyclopentanesulfonic acid [7-(2-fluoro-4-iodo-phenylamino)-6-methyl-5-oxo-2,3-dihydro-5H-thiazolo[3,2-a]pyridin-8-yl]-amide] |
| 100 | 0.0003 | Cc1c(Nc2ccc(I)cc2F)c(NS(=O)(=O)C2CC2)c2n(c1=O)CCS2 [Example 19A, Cyclopropanesulfonic acid [7-(2-fluoro-4-iodo-phenylamino)-6-methyl-5-oxo-2,3-dihydro-5H-thiazolo[3,2-a]pyridin-8-yl]-amide] |
| 97 | 0.061 | Cc1c(Nc2ccc(I)cc2F)c(NS(=O)(=O)C2(CO)CC2)c2n(c1=O)CCS2 [Example 22A, 1-Hydroxymethyl-cyclopropanesulfonic acid [7-(2-fluoro-4-iodo-phenylamino)-6-methyl-5-oxo-2,3-dihydro-5H-thiazolo[3,2-a]pyridin-8-yl]-amide] |
| 100 | 0.922 | Cc1c(Nc2ccc(I)cc2F)c(NS(=O)(=O)C2CC(O)C2)c2n(c1=O)CCS2 (centres unmarked) [Example 25A, 3-Hydroxy-cyclobutanesulfonic acid [7-(2-fluoro-4-iodo-phenylamino)-6-methyl-5-oxo-2,3-dihydro-5H-thiazolo[3,2-a]pyridin-8-yl]-amide] |
| 100 | 0.158 | Cc1c(Nc2ccc(I)cc2F)c(NS(=O)(=O)C2CC2CO)c2n(c1=O)CCS2 (centres unmarked) [Example 21A, 2-Hydroxymethyl-cyclopropanesulfonic acid [7-(2-fluoro-4-iodo-phenylamino)-6-methyl-5-oxo-2,3-dihydro-5H-thiazolo[3,2-a]pyridin-8-yl]-amide] |

— patent US8466289B2, “Heterocyclic sulfonamide derivatives” (Novartis AG, priority 2009, dated 2013)
